In the NIST ThermoML archive (doi:10.1021/je900537y):
Numbers after ± are expanded uncertainties.

Assay: molar heat capacity at constant pressure
Conditions: 101.33 kPa, Liquid, Small sample (50 mg) DSC

NCCCN [1,3-propanediamine]
Conditions	molar heat capacity at constant pressure [J/K/mol]
293.15 K	203.05 ± 3.1
294.65 K	203.21 ± 3.1
296.15 K	203.37 ± 3.1
297.65 K	203.53 ± 3.1
298.15 K	203.59 ± 3.1
299.15 K	203.7 ± 3.2
300.65 K	203.86 ± 3.2
302.15 K	204.03 ± 3.2
303.65 K	204.19 ± 3.2
305.15 K	204.36 ± 3.2
306.65 K	204.53 ± 3.2
308.15 K	204.7 ± 3.2
309.65 K	204.87 ± 3.2
311.15 K	205.04 ± 3.2
312.65 K	205.21 ± 3.2
314.15 K	205.38 ± 3.2
315.65 K	205.56 ± 3.2
317.15 K	205.73 ± 3.2
318.65 K	205.91 ± 3.2
320.15 K	206.08 ± 3.2
321.65 K	206.26 ± 3.2
323.15 K	206.43 ± 3.2
324.65 K	206.61 ± 3.2
326.15 K	206.79 ± 3.2
327.65 K	206.96 ± 3.2
329.15 K	207.14 ± 3.2
330.65 K	207.32 ± 3.2
332.15 K	207.5 ± 3.2
333.65 K	207.67 ± 3.2
335.15 K	207.85 ± 3.2
336.65 K	208.03 ± 3.2
338.15 K	208.2 ± 3.2
339.65 K	208.38 ± 3.2
341.15 K	208.56 ± 3.2
342.65 K	208.73 ± 3.2
344.15 K	208.91 ± 3.2
345.65 K	209.08 ± 3.2
347.15 K	209.26 ± 3.2
348.65 K	209.43 ± 3.2
350.15 K	209.6 ± 3.2
351.65 K	209.78 ± 3.2
353.15 K	209.95 ± 3.2

NCCCCN [1,4-butanediamine]
Conditions	molar heat capacity at constant pressure [J/K/mol]
298.15 K	236.33 ± 3.7
299.15 K	236.45 ± 3.7
300.65 K	236.61 ± 3.7
302.15 K	236.77 ± 3.7
303.65 K	236.94 ± 3.7
305.15 K	237.09 ± 3.7
306.65 K	237.25 ± 3.7
308.15 K	237.41 ± 3.7
309.65 K	237.56 ± 3.7
311.15 K	237.72 ± 3.7
312.65 K	237.87 ± 3.7
314.15 K	238.03 ± 3.7
315.65 K	238.18 ± 3.7
317.15 K	238.34 ± 3.7
318.65 K	238.49 ± 3.7
320.15 K	238.65 ± 3.7
321.65 K	238.81 ± 3.7
323.15 K	238.97 ± 3.7
324.65 K	239.13 ± 3.7
326.15 K	239.29 ± 3.7
327.65 K	239.46 ± 3.7
329.15 K	239.63 ± 3.7
330.65 K	239.8 ± 3.7
332.15 K	239.98 ± 3.7
333.65 K	240.15 ± 3.7
335.15 K	240.34 ± 3.7
336.65 K	240.52 ± 3.7
338.15 K	240.71 ± 3.7
339.65 K	240.91 ± 3.7
341.15 K	241.11 ± 3.7
342.65 K	241.32 ± 3.7
344.15 K	241.53 ± 3.7
345.65 K	241.74 ± 3.8
347.15 K	241.97 ± 3.8
348.65 K	242.2 ± 3.8
350.15 K	242.43 ± 3.8
351.65 K	242.68 ± 3.8
353.15 K	242.93 ± 3.8

NCCCCCCN [1,6-hexanediamine]
Conditions	molar heat capacity at constant pressure [J/K/mol]
314.15 K	301.08 ± 4.7
315.65 K	301.25 ± 4.7
317.15 K	301.42 ± 4.7
318.65 K	301.59 ± 4.7
320.15 K	301.77 ± 4.7
321.65 K	301.95 ± 4.7
323.15 K	302.14 ± 4.7
324.65 K	302.33 ± 4.7
326.15 K	302.53 ± 4.7
327.65 K	302.74 ± 4.7
329.15 K	302.95 ± 4.7
330.65 K	303.17 ± 4.7
332.15 K	303.4 ± 4.7
333.65 K	303.64 ± 4.7
335.15 K	303.88 ± 4.7
336.65 K	304.13 ± 4.7
338.15 K	304.4 ± 4.7
339.65 K	304.67 ± 4.7
341.15 K	304.95 ± 4.7
342.65 K	305.25 ± 4.7
344.15 K	305.55 ± 4.7
345.65 K	305.87 ± 4.7
347.15 K	306.2 ± 4.7
348.65 K	306.54 ± 4.8
350.15 K	306.89 ± 4.8
351.65 K	307.26 ± 4.8
353.15 K	307.64 ± 4.8

NCCCCCCCN [1,7-diaminoheptane]
Conditions	molar heat capacity at constant pressure [J/K/mol]
302.15 K	332.76 ± 5.2
303.65 K	332.93 ± 5.2
305.15 K	333.11 ± 5.2
306.65 K	333.29 ± 5.2
308.15 K	333.48 ± 5.2
309.65 K	333.67 ± 5.2
311.15 K	333.86 ± 5.2
312.65 K	334.06 ± 5.2
314.15 K	334.27 ± 5.2
315.65 K	334.48 ± 5.2
317.15 K	334.7 ± 5.2
318.65 K	334.92 ± 5.2
320.15 K	335.15 ± 5.2
321.65 K	335.38 ± 5.2
323.15 K	335.62 ± 5.2
324.65 K	335.87 ± 5.2
326.15 K	336.12 ± 5.2
327.65 K	336.38 ± 5.2
329.15 K	336.64 ± 5.2
330.65 K	336.91 ± 5.2
332.15 K	337.18 ± 5.2
333.65 K	337.47 ± 5.2
335.15 K	337.76 ± 5.2
336.65 K	338.05 ± 5.2
338.15 K	338.35 ± 5.2
339.65 K	338.66 ± 5.2
341.15 K	338.98 ± 5.2
342.65 K	339.3 ± 5.3
344.15 K	339.63 ± 5.3
345.65 K	339.97 ± 5.3
347.15 K	340.31 ± 5.3
348.65 K	340.66 ± 5.3
350.15 K	341.02 ± 5.3
351.65 K	341.39 ± 5.3
353.15 K	341.76 ± 5.3

NCCCCCCCCCN [1,9-diaminononane]
Conditions	molar heat capacity at constant pressure [J/K/mol]
311.15 K	398.93 ± 6.2
312.65 K	399.04 ± 6.2
314.15 K	399.17 ± 6.2
315.65 K	399.32 ± 6.2
317.15 K	399.47 ± 6.2
318.65 K	399.64 ± 6.2
320.15 K	399.82 ± 6.2
321.65 K	400.02 ± 6.2
323.15 K	400.22 ± 6.2
324.65 K	400.44 ± 6.2
326.15 K	400.67 ± 6.2
327.65 K	400.92 ± 6.2
329.15 K	401.17 ± 6.2
330.65 K	401.44 ± 6.2
332.15 K	401.72 ± 6.2
333.65 K	402.02 ± 6.2
335.15 K	402.32 ± 6.2
336.65 K	402.64 ± 6.2
338.15 K	402.97 ± 6.2
339.65 K	403.32 ± 6.2
341.15 K	403.67 ± 6.2
342.65 K	404.04 ± 6.3
344.15 K	404.43 ± 6.3
345.65 K	404.82 ± 6.3
347.15 K	405.23 ± 6.3
348.65 K	405.65 ± 6.3
350.15 K	406.08 ± 6.3
351.65 K	406.52 ± 6.3
353.15 K	406.98 ± 6.3

NCCN [ethane-1,2-diamine]
Conditions	molar heat capacity at constant pressure [J/K/mol]
293.15 K	172.34 ± 2.7
294.65 K	172.43 ± 2.7
296.15 K	172.53 ± 2.7
297.65 K	172.63 ± 2.7
298.15 K	172.66 ± 2.7
299.15 K	172.73 ± 2.7
300.65 K	172.84 ± 2.7
302.15 K	172.95 ± 2.7
303.65 K	173.06 ± 2.7
305.15 K	173.17 ± 2.7
306.65 K	173.29 ± 2.7
308.15 K	173.41 ± 2.7
309.65 K	173.53 ± 2.7
311.15 K	173.66 ± 2.7
312.65 K	173.79 ± 2.7
314.15 K	173.92 ± 2.7
315.65 K	174.05 ± 2.7
317.15 K	174.18 ± 2.7
318.65 K	174.31 ± 2.7
320.15 K	174.45 ± 2.7
321.65 K	174.59 ± 2.7
323.15 K	174.72 ± 2.7
324.65 K	174.86 ± 2.7
326.15 K	175 ± 2.7
327.65 K	175.15 ± 2.7
329.15 K	175.29 ± 2.7
330.65 K	175.43 ± 2.7
332.15 K	175.58 ± 2.7
333.65 K	175.72 ± 2.7
335.15 K	175.86 ± 2.7
336.65 K	176.01 ± 2.7
338.15 K	176.15 ± 2.7
339.65 K	176.3 ± 2.7
341.15 K	176.44 ± 2.7
342.65 K	176.59 ± 2.7
344.15 K	176.73 ± 2.7
345.65 K	176.87 ± 2.7
347.15 K	177.02 ± 2.7
348.65 K	177.16 ± 2.7
350.15 K	177.3 ± 2.8
351.65 K	177.44 ± 2.8
353.15 K	177.58 ± 2.8
